{"source": "patent US12279621B1", "about": "“Insect neuropeptides 3” (Solasta Bio Limited, priority 2023, dated 2025)", "tested_on": "Spodoptera frugiperda", "test": "Lepidoptera artificial diet assay", "type": "in vivo", "details": "unformulated peptide, final concentration 1×10^−4 M in diet, one L1 larva per cell, n=10, 168 hrs; compared to negative control vehicle and DDT", "experimental": "One larva was assayed per cell. (n=10). Frontier Lepidoptera artificial diet was made up by preparing agar at 1% and then mixing it with artificial diet powder. Peptide solution was aliquoted in 10 cells and diet poured straight onto it. The final concentration of the peptide was 1×10^−4 M, and each peptide was aliquoted in 10 cells. Once the diet solidified and cooled down, one L1 larvae was infested in each cell. The trays were sealed with heat and let larva were allowed to develop for 168 hrs. Finally, pupation and mortality were scored for. Lepidoptera artificial diet assays were performed with SB-P-80, and compared to a negative control vehicle and the insecticide dichlorodiphenyltrichloroethane (DDT).", "data": [{"substance": "[Hy]-NADEDQQQSVDFTPRL-[NH2] (H-NADEDQQQSVDFTPRL-NH2) [SB-P-80, pyrokinin peptide according to the invention]", "values": [{"measurement": "activity (pupation and mortality scored) in lepidoptera artificial diet assay", "result": "much higher activity"}]}]}
